{"source": "patent US20140066385A1", "about": "“METHOD FOR TREATING CANCER BY COMBINED USE OF DRUGS” (Astellas Pharma Inc., priority 2011, published 2014)", "test_system": "human gastric cancer (AZ-521)", "test": "Example 5: FK330 with paclitaxel in AZ-521 tumor-bearing mice", "type": "in vivo, nude mice", "conditions": "for tumor volume on the last day of experiment: AZ-521, Day 46, mean±SEM", "method": "Preparation of the test substances was carried out in the same manner as in Example 2.\nHuman gastric cancer-derived NCI-N87 (CRL-5822) was obtained from American Type Culture Collection (VA, USA), MKN-28 (JCRB0253) was obtained from Health Science Research Resources Bank (HSRRB), and AZ-521 (RCB2087) was obtained from Riken BRC. NCI-N87 and MKN-28 cells were cultured under the conditions of 37° C. and 5% CO2 by using RPMI1640 medium containing 10% heat-inactivated fetal bovine serum (FBS), and AZ-521 cells were cultured under the conditions of 37° C. and 5% CO2 by using DMEM medium containing 10% heat-inactivated FBS. The cells were harvested with trypsin and were suspended in PBS at 6×10^7 cells/mL, and the suspension was mixed with an equal amount of Matrigel (trade name) Basement Membrane Matrix (manufactured by Becton Dickinson Co., Bedford, Mass., USA).\nFive-week old male nude mice (CAnN Cg-Foxn1nu/CrlCrlj(nu/nu)) were purchased from Charles River Laboratories Japan, Inc. (Japan, Kanagawa). The animals were raised under specific pathogen-free (SPF) conditions throughout the test period by feeding standard feedstuff and drinking water. The cultured cells were subcutaneously inoculated into the dorsal region of the nude mice at a concentration of 3×10^6 cells/0.1 mL/mouse. […]\nEvery 2 to 4 days, the body weight and the tumor diameters, determined by using a digital caliper, were measured. The tumor volume was calculated from the calculation formula for ellipsoid volume of (major axis×[minor axis]^2×0.52).\nThe results are expressed as the mean value (Mean)±standard error (SEM). Using the actual measured values of the tumor volume at each measurement time point, an unpaired statistical test (Student's t-test) of the difference between two groups was carried out between a single administration group and a combined use group. […]", "data": [{"compound": "O=C(/C=C/c1ccc(Cl)cc1)N[C@@H](Cc1ccccn1)C(=O)NCC(=O)N1CCC(Oc2cc(C(F)(F)F)ncn2)CC1", "note": "[FK330, N^2-[(2E)-3-(4-chlorophenyl)-2-propenoyl]-N-[2-oxo-2-(4-{[6-(trifluoromethyl)pyrimidin-4-yl]oxy}piperidin-1-yl)ethyl]-3-pyridin-2-yl-L-alaninamide]", "values": [{"measurement": "tumor volume on the last day of experiment", "setting": "combined use group paclitaxel 10 mg/kg/day + FK330 100 mg/kg bid", "value": "795.0±223.3", "unit": "mm^3"}, {"measurement": "tumor volume decrease compared with the paclitaxel-only group", "setting": "AZ-521, last day, FK330 100 mg/kg bid + paclitaxel, P<0.01", "value": 75.8, "unit": "%"}]}, {"compound": "CC(=O)O[C@H]1C(=O)[C@@]2(C)[C@H]([C@H](OC(=O)c3ccccc3)[C@]3(O)C[C@H](OC(=O)[C@H](O)[C@@H](NC(=O)c4ccccc4)c4ccccc4)C(C)=C1C3(C)C)[C@]1(OC(C)=O)CO[C@@H]1C[C@@H]2O", "note": "[paclitaxel, reference compound]", "values": [{"measurement": "tumor volume on the last day of experiment", "setting": "paclitaxel-only group 10 mg/kg/day i.v., two cycles", "value": "3285.4±359.4", "unit": "mm^3"}]}]}
